Assay results as given in US6485924B2, “Method for identifying inhibitors of cytokinesis” (Boehringer Ingelheim International GmbH, priority 1999, dated 2002).

Assays:
[1] = molecular target: T1, XSepA (Xenopus laevis, UniProt Q9DE33); experiment: Filament assembly / polymerization followed by immunofluorescence microscopy; format: biochemical; settings: for filamentous structures observed: control nucleotide used instead of GTP, 30 minutes; for length of the lag phase of polymerization: 1 mg/ml XSepA, 0.1 mM nucleotide; for critical concentration for XSepA polymerization: 30 min incubation with nucleotide
T1 construct: made in house; host or cells: E. coli BL21(DE3)
T1 sequence (Q9DE33 1-356): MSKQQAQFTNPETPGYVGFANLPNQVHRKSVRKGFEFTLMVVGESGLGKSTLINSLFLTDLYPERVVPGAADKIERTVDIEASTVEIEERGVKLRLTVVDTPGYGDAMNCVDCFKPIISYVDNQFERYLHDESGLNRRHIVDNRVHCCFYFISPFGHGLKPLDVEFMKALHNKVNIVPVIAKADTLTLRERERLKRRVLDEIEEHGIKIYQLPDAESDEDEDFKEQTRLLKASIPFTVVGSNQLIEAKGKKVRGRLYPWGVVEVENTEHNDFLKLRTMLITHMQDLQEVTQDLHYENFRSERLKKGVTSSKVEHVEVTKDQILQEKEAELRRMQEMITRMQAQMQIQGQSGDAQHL
Method: (§1) Polymerization reactions were carried out in S-buffer in the presence of 5 mM MgCl2 and GTP, GTP-γ-S, GDP or ATP (Gibco). Before nucleotide addition, all samples were pre-cleared in an ultracentrifuge (see below). Aliquots of the reaction were diluted to a final septin concentration of 3.3 μg/ml, and 100 μl drops spotted on glass coverslips for 1 min. Before use, coverslips were soaked with an acetone solution of 0.5% 3-aminopropyltriethoxy-silane (Sigma), washed in acetone and air-dried. Following sample application, the coverslips were washed with 2 ml S-buffer, fixed in cold methanol for 10 min and stained with a polyclonal rabbit antibody raised against an N-terminal peptide of XSepA (M. Glotzer and T. Hyman, in preparation). Secondary antibodies were DTAF-coupled anti-rabbit (Dianova). Images were acquired using a Zeiss Axioplan II microscope and Adobe Photoshop software. Processing and analysis of immunofluorescence images was performed on a Macintosh computer using the public domain NIH Image program (developed at the U.S. National Institutes of Health and available at http://rsb.info.nih.gov/nih-image). Thresholded binary images were generated, and particle length was obtained by measuring the major axis of the best fitting ellipse. Particles with length <0.4 μm were not included in the analysis. Although filaments tended to be straight, this procedure results in underestimation of the length of curved filaments. For sedimentation assays, 20 μl polymerization reactions containing 1 mg/ml septin were pre-cleared in an ultracentrifuge at 279000×g for 15 min at 4° C. Precleared samples were incubated with nucleotide at room temperature for 30 min and spun through a 50% glycerol cushion at 279000×g for 15 min at 25° C.
Filament forming proteins like actin, tubulin and FtsZ polymerize in a nucleotide-dependent fashion. To test whether septin filament assembly is regulated by a similar mechanism, XSepA was incubated with GTP (or its slowly hydrolyzable analogue GTP-γ-S) for 30 minutes and spotted onto glass coverslips. After the coverslips were fixed and stained with anti-XSepA antibody, filamentous structures of up to 7 μm in length were observed. […] FIGS. 2A and 2B depict the GTP-dependent assembly of XSepA and Δcc-SepA filaments. Top panels: Immunostainings of septin preparations (1 mg/ml) incubated with 0.1 mM of the indicated nucleotide for 30 min and diluted in S-buffer prior to fixation. Filamentous structures are observed with both full-length (A) and Δcc-SepA (B) only in the presence of GTP or GTP-γ-S. Bottom panels: Identical reactions were centrifuged through a 50% glycerol cushion at 279000×g for 15 min. Supernatants (S) and pellets (P) were collected and resolved by gel electrophoresis.
To gain insight into the polymerization mechanism of XSepA, the kinetics of the filament formation reaction was followed using immunofluorescence microscopy. At different times after GTP addition, aliquots of septin protein were processed for immunofluorescence as already described. For each time point, individual septin filaments were counted and their lengths measured. The length of all the filaments present in a field was added, and the result (proportional to the polymer mass) was plotted against time. Immunofluorescence images were acquired as described and the length of the filaments was measured (see Methods section). The relative polymer mass was obtained by adding the length of all the filaments present in a field. Each point represents data from four random fields. Only filaments of ≧400 nm in length were considered in the analysis. (A) Time course of filament assembly. At different times following nucleotide addition to 0.1 mM (t=0 min) aliquots of a reaction containing 1 mg/ml XSepA were diluted 300-fold and spotted on coverslips for 1 min before washing and fixation. (B) Determination of the critical concentration for polymerization. […]

[2] = molecular target: T1, XSepA; experiment: GTP filter binding assay; settings: for ability of cold nucleotide to compete with the radiolabeled guanine nucleotide: data not shown
Method: For GTP binding, 1 μM of XSepA (or Δcc-SepA) in S-buffer was incubated with 0.1 mg/ml BSA, 5 mM MgCl2 and 4.4 μM ^3H-GTP (4.60 Ci/mmol, 1 mCi/ml; Amersham). At time intervals, aliquots of the reaction were diluted in cold wash buffer (20 mM Tris pH 8.0, 50 mM NaCl, 5 mM MgCl2) and filtered through pre-wetted nitrocellulose circles (Schleicher and Schuell) Filters were washed with 10 ml of wash buffer, dried, and the retained radioactivity quantified in a scintillation counter.
The ability of recombinant XSepA to bind guanine nucleotide was tested by using a filter binding assay. […] To assay for GTP hydrolysis, XSepA was incubated with limiting amounts of [α-^32P]GTP and the production of radioactive GDP was followed by thin layer chromatography. […] FIGS. 1C and 1D show time courses of GTP binding and hydrolysis by XSepA and Δcc-SepA. Recombinant protein (1 μM) was incubated with an excess of [^3H]GTP to quantify nucleotide binding, or with sub-stoichiometric amounts of [α-^32P]GTP to detect nucleotide hydrolysis. (C) GTP binding as determined by a filter-binding assay. (D) TLC plate showing generation of radioactive GDP from GTP. Aliquots of the reaction were quenched in a denaturing solution at the indicated time, and the nucleotide content was resolved by TLC. BSA (0.1 mg/ml) was used as a negative control in both experiments.)

[3] = molecular target: T1, XSepA; experiment: Filament sedimentation assay through glycerol cushion; format: biochemical; settings: 1 mg/ml septin, 0.1 mM nucleotide, 30 min, 279000×g
Method: as §1, with “Although filaments tended to be straight, this procedure results in underestimation of the length of curved filaments. For sedimentation assays, 20 μl polymerization reactions containing 1 mg/ml septin were pre-cleared in an ultracentrifuge at 279000×g for 15 min at 4° C. Precleared samples were incubated with nucleotide at room temperature for 30 min and spun through a 50% glycerol cushion at 279000×g for 15 min at 25° C.” left out

[4] = molecular target: T2, XSepA filaments (Xenopus laevis, UniProt Q9DE33); experiment: Dilution-induced filament depolymerization; format: biochemical; settings: 20 min after 600-fold dilution into buffer
T2 construct: made in house; host or cells: E. coli BL21(DE3)
T2 sequence (Q9DE33 1-356): T1 sequence (Q9DE33 1-356)
Method: To gain insight into the polymerization mechanism of XSepA, the kinetics of the filament formation reaction was followed using immunofluorescence microscopy. At different times after GTP addition, aliquots of septin protein were processed for immunofluorescence as already described. For each time point, individual septin filaments were counted and their lengths measured. The length of all the filaments present in a field was added, and the result (proportional to the polymer mass) was plotted against time. Immunofluorescence images were acquired as described and the length of the filaments was measured (see Methods section). The relative polymer mass was obtained by adding the length of all the filaments present in a field. Each point represents data from four random fields. Only filaments of ≧400 nm in length were considered in the analysis. (A) Time course of filament assembly. […] Polymer content was determined after 30 min incubation. […] In (B) and (C) a curve was fitted to the data points where filaments were detected.
To address the role of GTP hydrolysis in septin filament formation, the polymerization kinetics of XSepA in the presence of a slowly hydrolysable GTP analogue, GTP-γ-S, was studied. […] To investigate directly whether nucleotide hydrolysis promotes disassembly, filaments assembled with GTP or GTP-γ-S were diluted 600-fold into buffer and depolymerization rates were determined. […]

[5] = literature values; tubulin: pure, in glycerol buffer; cited from earlier work

Compound | filamentous structures observed [1] | ability of cold nucleotide to compete with the radiolabeled guanine nucleotide [2] | sedimentable fraction of septin after incubation with nucleotide [3] | length of the lag phase of polymerization [1] | critical concentration for XSepA polymerization [1] | also measured
Nc1ncnc2c1ncn2[C@@H]1O[C@H](COP(=O)(O)OP(=O)(O)OP(=O)(O)O)[C@@H](O)[C@H]1O [ATP] | This was not the case | not | – | – | – | –
Nc1nc2c(ncn2[C@@H]2O[C@H](COP(=O)(O)OP(=O)(O)OP(O)(O)=S)[C@@H](O)[C@H]2O)c(=O)[nH]1 [GTP-γ-S] | – | – | increased significantly | 3 min | 0.2 mg/mL | filaments still present [4]: ca. 30 % of their initial level
actin | – | – | – | – | – | critical concentration for polymerization [5]: ~0.2 µM

The next lines start with results.

filamentous structures observed [1] | ability of cold nucleotide to compete with the radiolabeled guanine nucleotide [2] | Compound | sedimentable fraction of septin after incubation with nucleotide [3] | length of the lag phase of polymerization [1] | critical concentration for XSepA polymerization [1] | also measured
This was not the case | not | Nc1nc2c(ncn2[C@@H]2O[C@H](COP(=O)(O)OP(=O)(O)O)[C@@H](O)[C@H]2O)c(=O)[nH]1 [GDP] | – | – | – | –
– | able to compete | Nc1nc2c(ncn2[C@@H]2O[C@H](COP(=O)(O)OP(=O)(O)OP(=O)(O)O)[C@@H](O)[C@H]2O)c(=O)[nH]1 [GTP, guanosine triphosphate] | increased significantly | 5 min | 0.5 mg/mL | depolymerization after dilution [4]: essentially complete; GTP binding plateau ([2]; filter binding, excess [3H]GTP): 0.4-0.5 moles GTP/moles of XSepA; time to essentially complete maximum of nucleotide binding ([2]; limiting concentration of nucleotide, not shown): ≤ 5 min
